# ChEMBL document CHEMBL1153245, “A profile of the in vitro anti-tumor activity of imidazolium-based ionic liquids” (2010)
# What was measured:
# Type in all cases: functional
# EKVX [1] = assay: Anticancer activity against human EKVX cells assessed cell growth at 10 uM after 48 hrs by sulforhodamine B assay relative to control
# EKVX [2] = assay: Anticancer activity against human EKVX cells after 48 hrs by sulforhodamine B assay; conditions: Homo sapiens, EKVX, 48 h
# SF-295 = assay: Anticancer activity against human SF295 cells after 48 hrs by sulforhodamine B assay; conditions: Homo sapiens, SF-295, 48 h
# HT-29 = assay: Anticancer activity against human HT-29 cells after 48 hrs by sulforhodamine B assay; conditions: Homo sapiens, HT-29, 48 h
# NCI-H226 = assay: Anticancer activity against human NCI-H226 cells after 48 hrs by sulforhodamine B assay; conditions: Homo sapiens, NCI-H226, 48 h
# SK-MEL-28 = assay: Anticancer activity against human SK-MEL-28 cells after 48 hrs by sulforhodamine B assay; conditions: Homo sapiens, SK-MEL-28, 48 h
# SN12C = assay: Anticancer activity against human SN12C cells after 48 hrs by sulforhodamine B assay; conditions: Homo sapiens, SN12C, 48 h
# K562 = assay: Anticancer activity against human K562 cells after 48 hrs by sulforhodamine B assay; conditions: Homo sapiens, K562, 48 h
# NCI-H460 = assay: Anticancer activity against human NCI-H460 cells after 48 hrs by sulforhodamine B assay; conditions: Homo sapiens, NCI-H460, 48 h
# IGROV-1 = assay: Anticancer activity against human IGROV1 cells after 48 hrs by sulforhodamine B assay; conditions: IGROV-1, 48 h
# RXF 393 = assay: Anticancer activity against human RXF393 cells after 48 hrs by sulforhodamine B assay; conditions: Homo sapiens, RXF 393, 48 h
# SF-539 = assay: Anticancer activity against human SF539 cells after 48 hrs by sulforhodamine B assay; conditions: Homo sapiens, SF-539, 48 h
# CCRF-CEM = assay: Anticancer activity against human CCRF-CEM cells after 48 hrs by sulforhodamine B assay; conditions: Homo sapiens, CCRF-CEM, 48 h
# SK-MEL-2 = assay: Anticancer activity against human SK-MEL-2 cells after 48 hrs by sulforhodamine B assay; conditions: SK-MEL-2, 48 h
# A498 = assay: Anticancer activity against human A498 cells after 48 hrs by sulforhodamine B assay; conditions: Homo sapiens, A498, 48 h
# HL-60(TB) = assay: Anticancer activity against human HL-60(TB) cells after 48 hrs by sulforhodamine B assay; conditions: Homo sapiens, HL-60, 48 h
# SNB-19 = assay: Anticancer activity against human SNB19 cells after 48 hrs by sulforhodamine B assay; conditions: Homo sapiens, SNB-19, 48 h
# SK-OV-3 = assay: Anticancer activity against human SKOV3 cells after 48 hrs by sulforhodamine B assay; conditions: Homo sapiens, SK-OV-3, 48 h
# Malme-3M = assay: Anticancer activity against human MALME-3M cells after 48 hrs by sulforhodamine B assay; conditions: Homo sapiens, Malme-3M, 48 h
# DU-145 = assay: Anticancer activity against human DU145 cells after 48 hrs by sulforhodamine B assay; conditions: Homo sapiens, DU-145, 48 h
# SK-MEL-5 = assay: Anticancer activity against human SK-MEL-5 cells after 48 hrs by sulforhodamine B assay; conditions: Homo sapiens, SK-MEL-5, 48 h
# U-251 = assay: Anticancer activity against human U251 cells after 48 hrs by sulforhodamine B assay; conditions: Homo sapiens, U-251, 48 h
# NCI-H23 = assay: Anticancer activity against human NCI-H23 cells after 48 hrs by sulforhodamine B assay; conditions: Homo sapiens, NCI-H23, 48 h
# ACHN = assay: Anticancer activity against human ACHN cells after 48 hrs by sulforhodamine B assay; conditions: Homo sapiens, ACHN, 48 h
# [3] = Anticancer activity against human […] cells after 48 hrs by sulforhodamine B assay; conditions: Homo sapiens, RPMI8266, 48 h
# SF-268 = assay: Anticancer activity against human SF268 cells after 48 hrs by sulforhodamine B assay; conditions: Homo sapiens, SF-268, 48 h
# [4] = Anticancer activity against human Hs 578T cells after 48 hrs by sulforhodamine B assay; conditions: Homo sapiens, Hs-578T, 48 h
# MOLT-4 = assay: Anticancer activity against human MOLT4 cells after 48 hrs by sulforhodamine B assay; conditions: Homo sapiens, MOLT-4, 48 h
# HCC 2998 = assay: Anticancer activity against human HCC2998 cells after 48 hrs by sulforhodamine B assay; conditions: Homo sapiens, HCC 2998, 48 h
# MDA-MB-435 = assay: Anticancer activity against human MDA-MB-435 cells after 48 hrs by sulforhodamine B assay; conditions: Homo sapiens, MDA-MB-435, 48 h
# T47D = assay: Anticancer activity against human T47D cells after 48 hrs by sulforhodamine B assay; conditions: Homo sapiens, T47D, 48 h
# PC-3 = assay: Anticancer activity against human PC3 cells after 48 hrs by sulforhodamine B assay; conditions: Homo sapiens, PC-3, 48 h
# SNB-75 = assay: Anticancer activity against human SNB75 cells after 48 hrs by sulforhodamine B assay; conditions: Homo sapiens, SNB-75, 48 h
# SW-620 = assay: Anticancer activity against human SW620 cells after 48 hrs by sulforhodamine B assay; conditions: Homo sapiens, SW-620, 48 h
# [5] = read-out: LC50 (the source's name)
structure (smiles),measurement,setting,value
COCC[n+]1ccn(C)c1.O=S(=O)([N-]S(=O)(=O)C(F)(F)F)C(F)(F)F,Activity,EKVX [1],108.75%
CCCCCCCCCCCCCCCCCC[n+]1ccn(C)c1.FC(F)(F)C(F)(F)[P-](F)(F)(F)(C(F)(F)C(F)(F)F)C(F)(F)C(F)(F)F,GI50,EKVX [2],346 nM
same,CC50,EKVX [2]; [5],8910 nM
same,GI50,SF-295,275 nM
same,CC50,SF-295; [5],5770 nM
same,GI50,HT-29,315 nM
same,CC50,HT-29; [5],> 100000 nM
same,GI50,NCI-H226,435 nM
same,LC50,NCI-H226,8230 nM
same,GI50,SK-MEL-28,374 nM
same,LC50,SK-MEL-28,3980 nM
same,GI50,SN12C,353 nM
same,LC50,SN12C,4180 nM
same,GI50,K562,238 nM
same,CC50,K562; [5],> 100000 nM
same,GI50,NCI-H460,323 nM
same,LC50,NCI-H460,4850 nM
same,GI50,IGROV-1,219 nM
same,CC50,IGROV-1; [5],1440 nM
same,GI50,RXF 393,930 nM
same,LC50,RXF 393,8310 nM
same,GI50,SF-539,288 nM
same,"LC50 (lethal concentration, 50% cell kill)",SF-539,4190 nM
same,GI50,CCRF-CEM,324 nM
same,LC50,CCRF-CEM,> 100000 nM
same,GI50,SK-MEL-2,372 nM
same,LC50,SK-MEL-2,> 100000 nM
same,GI50,A498,371 nM
same,CC50,A498; [5],3390 nM
same,GI50,HL-60(TB),238 nM
same,CC50,HL-60(TB); [5],> 100000 nM
same,GI50,SNB-19,422 nM
same,CC50,SNB-19; [5],3950 nM
same,GI50,SK-OV-3,355 nM
same,CC50,SK-OV-3; [5],3830 nM
same,GI50,Malme-3M,271 nM
same,LC50 (concentration killing 50% of cells),Malme-3M,4250 nM
same,GI50,DU-145,495 nM
same,CC50,DU-145; [5],4430 nM
same,GI50,SK-MEL-5,313 nM
same,CC50,SK-MEL-5; [5],3310 nM
same,GI50,U-251,322 nM
same,CC50,U-251; [5],3700 nM
same,GI50,NCI-H23,224 nM
same,CC50,NCI-H23; [5],12700 nM
same,GI50,ACHN,281 nM
same,LC50,ACHN,3550 nM
same,GI50,[3],86 nM
same,CC50,[3]; [5],> 100000 nM
same,GI50,SF-268,481 nM
same,CC50,SF-268; [5],5790 nM
same,GI50,[4],287 nM
same,CC50,[4]; [5],5430 nM
same,GI50,MOLT-4,336 nM
same,LC50,MOLT-4,> 100000 nM
same,GI50,HCC 2998,271 nM
same,CC50,HCC 2998; [5],25500 nM
same,GI50,MDA-MB-435,344 nM
same,CC50,MDA-MB-435; [5],2930 nM
same,GI50,T47D,282 nM
same,CC50,T47D; [5],63700 nM
same,GI50,PC-3,276 nM
same,CC50,PC-3; [5],8030 nM
same,GI50,SNB-75,419 nM
same,CC50,SNB-75; [5],> 100000 nM
same,GI50,SW-620,328 nM
same,LC50,SW-620,3740 nM
Cn1cc[n+](Cc2ccccc2)c1.F[P-](F)(F)(F)(F)F,Activity,EKVX [1],102.53%
